Drawing on PubChem BioAssay (NCI), this text covers GI50 and TGI for 13 molecules.

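Briefly, cells in 96-well plates were exposed to five compound concentrations for 48 h, and endpoints were estimated by linear interpolation. GI50 = concentration required for 50% inhibition of growth. The concentration for full growth arrest is given as TGI.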

Test systems include HS 578T breast; KM12 colon; RXF 393 renal; SF-295 CNS; K-562 leukemia; HCT-15 colon; UO-31 renal; MALME-3M melanoma; NCI-H226 lung; OVCAR-5 ovarian.
What all share (test): inhibition of tumour cell growth, NCI panel, 48 h

Regarding `CCCCC[C@H]1CC=C2C(=O)C=C[C@@H]2CC=CCCCC(=O)O[C@@H](CCCCC)CC=C2C(=O)C=C[C@@H]2CC=CCCCC(=O)O[C@@H](CCCCC)CC=C2C(=O)C=C[C@@H]2CC=CCCCC(=O)O1`, the GI50 in the assay with HS 578T breast is 773 nM; with KM12 colon, 310 nM; in the assay with RXF 393 renal, 194 nM; with SF-295 CNS, 432 nM; with K-562 leukemia it was 317 nM; in the assay on HCT-15 colon, 718 nM. The GI50 is 457 nM in the assay on UO-31 renal, 295 nM with MALME-3M melanoma, 1130 nM with NCI-H226 lung and 1080 nM in the assay on OVCAR-5 ovarian. Besides, the TGI was greater than 8750 nM with HS 578T breast; 1220 nM in the assay on KM12 colon; 422 nM with RXF 393 renal; 5130 nM with SF-295 CNS; greater than 8750 nM in the assay on K-562 leukemia; 5730 nM in the assay with HCT-15 colon. The TGI is 1630 nM in the assay on UO-31 renal, greater than 8750 nM in the assay on MALME-3M melanoma, 3810 nM in the assay on NCI-H226 lung and greater than 8750 nM with OVCAR-5 ovarian.

`O=C1/C(=C/c2ccc(F)c(F)c2)CN(C(=O)C(Cl)Cl)C/C1=C\c1ccc(F)c(F)c1`: the GI50 was 261 nM with HS 578T breast; 49.7 nM in the assay on KM12 colon; 182 nM with RXF 393 renal; 45.4 nM in the assay on SF-295 CNS; 23.5 nM in the assay with K-562 leukemia; 30.3 nM in the assay on HCT-15 colon. The GI50 in the assay with UO-31 renal was 98.2 nM; in the assay on MALME-3M melanoma, 199 nM; in the assay on NCI-H226 lung, 1130 nM; in the assay with OVCAR-5 ovarian, 167 nM. Moreover, the TGI with HS 578T breast is 1010 nM; in the assay with KM12 colon it was 200 nM; with RXF 393 renal, 399 nM; with SF-295 CNS, 210 nM; with K-562 leukemia, greater than 100000 nM; in the assay with HCT-15 colon, 164 nM. The TGI in the assay on UO-31 renal came to 238 nM; with MALME-3M melanoma, 539 nM; in the assay on NCI-H226 lung, 5720 nM; with OVCAR-5 ovarian it was 421 nM.

For `CC(CN1CC(=O)NC(=O)C1)N1CC(=O)NC(=O)C1` (stereo not given), the TGI with HS 578T breast is greater than 391000 nM; in the assay on KM12 colon, greater than 729000 nM; with RXF 393 renal, greater than 750000 nM; with SF-295 CNS, greater than 750000 nM; in the assay with K-562 leukemia, greater than 750000 nM; with HCT-15 colon, greater than 750000 nM. For the same molecule, the TGI in the assay on UO-31 renal was greater than 750000 nM; with MALME-3M melanoma it was 355000 nM; with NCI-H226 lung, 505000 nM; in the assay with OVCAR-5 ovarian it was 749000 nM.

Take `C=C(C)[C@@H]1CC[C@]2(COCCCNCCCN)CC[C@]3(C)[C@H](CC[C@@H]4[C@@]5(C)CC[C@H](OCCCN)C(C)(C)[C@@H]5CC[C@]43C)[C@@H]12`: the GI50 is 997 nM in the assay with HS 578T breast; 928 nM with KM12 colon; 825 nM in the assay with RXF 393 renal; 868 nM in the assay on SF-295 CNS; 879 nM in the assay on K-562 leukemia; 860 nM in the assay on HCT-15 colon. Moreover, the GI50 is 765 nM in the assay with UO-31 renal, 801 nM with MALME-3M melanoma, 1040 nM in the assay with NCI-H226 lung and 918 nM in the assay on OVCAR-5 ovarian. For the same molecule, the TGI in the assay on HS 578T breast was 2150 nM; with KM12 colon, 1730 nM; with RXF 393 renal it was 1610 nM; in the assay with SF-295 CNS it was 1590 nM; in the assay on K-562 leukemia, 1820 nM; in the assay on HCT-15 colon, 1590 nM. In addition, the TGI stood at 1500 nM in the assay with UO-31 renal, 1530 nM in the assay with MALME-3M melanoma, 2340 nM with NCI-H226 lung and 1670 nM with OVCAR-5 ovarian.

With `CCCCCCCN(CCCCCCC)C(=N)c1ccnc2ccccc12`, the GI50 is 1640 nM with HS 578T breast; 1820 nM in the assay with KM12 colon; 1440 nM with RXF 393 renal; 1690 nM with SF-295 CNS; 1270 nM in the assay on K-562 leukemia; 1590 nM in the assay on HCT-15 colon. Moreover, the GI50 with UO-31 renal was 1090 nM; with MALME-3M melanoma, 1620 nM; with NCI-H226 lung, 1880 nM; in the assay with OVCAR-5 ovarian, 1800 nM. Moreover, the TGI in the assay with HS 578T breast was found to be 4360 nM; in the assay on KM12 colon it was 3490 nM; in the assay with RXF 393 renal it was 2990 nM; in the assay on SF-295 CNS, 3450 nM; in the assay on K-562 leukemia it was 3480 nM; in the assay on HCT-15 colon, 3040 nM. In addition, the TGI in the assay with UO-31 renal was 2410 nM; with MALME-3M melanoma it was 3370 nM; with NCI-H226 lung, 3780 nM; in the assay on OVCAR-5 ovarian, 3600 nM.

For `Cc1cn(CCC(N)C(=O)O)c(=O)[nH]c1=O` (stereo not given), the TGI in the assay with HS 578T breast, in the assay with KM12 colon, in the assay with RXF 393 renal, in the assay on SF-295 CNS, in the assay with K-562 leukemia and in the assay on HCT-15 colon was greater than 100000 nM in each case. Also, the TGI in the assay on UO-31 renal, in the assay on MALME-3M melanoma, in the assay on NCI-H226 lung and in the assay with OVCAR-5 ovarian was greater than 100000 nM in each case.

Consider `CC(CN(C)C)S(=O)(=O)c1ccc(-c2cnc(N)c(C(=O)Nc3ccccc3)n2)cc1` (stereo not given), for which the GI50 is 2410 nM with HS 578T breast; 11100 nM in the assay with KM12 colon; 1520 nM in the assay with RXF 393 renal; 8490 nM in the assay on SF-295 CNS; 3000 nM with K-562 leukemia; 2910 nM in the assay with HCT-15 colon. Besides, the GI50 was 4780 nM in the assay on UO-31 renal, 8160 nM in the assay with MALME-3M melanoma, 12900 nM with NCI-H226 lung and 11800 nM with OVCAR-5 ovarian. In addition, the TGI in the assay on HS 578T breast came out at 27000 nM; with KM12 colon, 28700 nM; in the assay on RXF 393 renal it was 8400 nM; with SF-295 CNS it was 25700 nM; in the assay on K-562 leukemia, 22000 nM; in the assay on HCT-15 colon, 13400 nM. The TGI in the assay with UO-31 renal was 28700 nM; in the assay with MALME-3M melanoma, 26600 nM; with NCI-H226 lung, 35400 nM; with OVCAR-5 ovarian, 34500 nM.

For `COc1ccc(C(C#N)=C2C=CC(=NO)C=C2)cc1`, the GI50 in the assay with HS 578T breast was 2900 nM; in the assay with KM12 colon, 1790 nM; in the assay with RXF 393 renal it was 7800 nM; in the assay with SF-295 CNS, 4800 nM; with K-562 leukemia, 7260 nM; in the assay with HCT-15 colon, 11700 nM. Besides, the GI50 in the assay with UO-31 renal was 4230 nM; in the assay on MALME-3M melanoma, 12400 nM; in the assay on NCI-H226 lung, 3970 nM; with OVCAR-5 ovarian it was 19500 nM. Besides, the TGI in the assay on HS 578T breast was 20300 nM; in the assay with KM12 colon, 4040 nM; in the assay on RXF 393 renal, 20500 nM; with SF-295 CNS, 17100 nM; with K-562 leukemia, greater than 100000 nM; in the assay with HCT-15 colon, 26100 nM. In addition, the TGI in the assay with UO-31 renal worked out at 14600 nM; in the assay with MALME-3M melanoma, 27500 nM; with NCI-H226 lung, 15200 nM; in the assay with OVCAR-5 ovarian it was 34300 nM.

As to `O=P(O)(O)OCC1OC(n2cnc3c(NCc4ccco4)ncnc32)C(O)C1O` (stereo not given), the GI50 in the assay with HS 578T breast was 802 nM; with KM12 colon, 4440 nM; in the assay with RXF 393 renal, 965 nM; with SF-295 CNS it was 2530 nM; with K-562 leukemia, 3010 nM; in the assay on HCT-15 colon, 701 nM. The GI50 in the assay with UO-31 renal is 993 nM; in the assay with MALME-3M melanoma, 5090 nM; in the assay on NCI-H226 lung it was 7130 nM; with OVCAR-5 ovarian it was 5640 nM. The TGI in the assay with HS 578T breast was 7170 nM; with KM12 colon, greater than 42600 nM; with RXF 393 renal it was 4950 nM; with SF-295 CNS, greater than 35100 nM; with K-562 leukemia it was greater than 57500 nM; in the assay with HCT-15 colon it was greater than 56900 nM. Moreover, the TGI in the assay on UO-31 renal is greater than 26500 nM; with MALME-3M melanoma it was 40900 nM; in the assay with NCI-H226 lung, greater than 56500 nM; with OVCAR-5 ovarian, greater than 100000 nM.

Turning to `O=C(O)C1CCN(Cc2oc(CO)cc(=O)c2O)C1` (stereo not given), the TGI in the assay with HS 578T breast, in the assay on KM12 colon, in the assay with RXF 393 renal, in the assay with SF-295 CNS, with K-562 leukemia and in the assay on HCT-15 colon was greater than 100000 nM each time. Besides, the TGI with UO-31 renal, in the assay on MALME-3M melanoma, in the assay with NCI-H226 lung and with OVCAR-5 ovarian was greater than 100000 nM throughout.

For `O=C1Nc2ccccc2/C1=C\c1cccc(/C=C2/C(=O)Nc3ccccc32)n1`, the GI50 was 294 nM with HS 578T breast; 282 nM with KM12 colon; 248 nM with RXF 393 renal; 499 nM with SF-295 CNS; 291 nM in the assay with K-562 leukemia; 219 nM in the assay with HCT-15 colon. The GI50 with UO-31 renal is 779 nM; in the assay on MALME-3M melanoma it was 300 nM; with NCI-H226 lung, 1530 nM; with OVCAR-5 ovarian it was 888 nM. Besides, the TGI in the assay with HS 578T breast is 1310 nM; with KM12 colon it was 1020 nM; in the assay with RXF 393 renal, 610 nM; in the assay on SF-295 CNS, 2240 nM; in the assay on K-562 leukemia it was greater than 37900 nM; with HCT-15 colon, 618 nM. The TGI in the assay with UO-31 renal is 2370 nM; in the assay with MALME-3M melanoma, 1080 nM; with NCI-H226 lung, 5130 nM; in the assay with OVCAR-5 ovarian it was 2400 nM.

On to `Nc1ncnc2c1c(-c1ccc(Oc3ccccc3)cc1)nn2C[C@H]1SSC[C@@H]1O`, for which the GI50 with HS 578T breast is 2810 nM; with KM12 colon, 242 nM; in the assay on RXF 393 renal, 1740 nM; in the assay with SF-295 CNS, 1950 nM; in the assay with K-562 leukemia, 342 nM; in the assay with HCT-15 colon, 622 nM. The GI50 in the assay with UO-31 renal was 1680 nM; in the assay with MALME-3M melanoma, 826 nM; in the assay with NCI-H226 lung, 1730 nM; with OVCAR-5 ovarian, 6350 nM. In addition, the TGI is 10600 nM with HS 578T breast; 16400 nM in the assay on KM12 colon; 5750 nM in the assay with RXF 393 renal; 9900 nM with SF-295 CNS; 4080 nM with K-562 leukemia; 16400 nM in the assay on HCT-15 colon. The TGI is 5700 nM in the assay on UO-31 renal, 3940 nM in the assay on MALME-3M melanoma, 5150 nM in the assay with NCI-H226 lung and 41000 nM in the assay with OVCAR-5 ovarian.

Consider `COC(NC(N)=O)C(=O)O` (stereo not given), for which the TGI in the assay on HS 578T breast, in the assay with KM12 colon, in the assay on RXF 393 renal, in the assay on SF-295 CNS, in the assay with K-562 leukemia and in the assay on HCT-15 colon was greater than 100000 nM each time. The TGI with UO-31 renal, in the assay with MALME-3M melanoma, with NCI-H226 lung and with OVCAR-5 ovarian was greater than 100000 nM in each case.
